In one data set the test system is MDCK cell cultures. The note with it: for Cytotoxicity MCC: dog.
The test system of another data set is influenza A (H3N2). Kind of data set: microbe, parasite or virus in culture. The note with it: H3N2, MDCK, read-out: Anti-influenza EC50 A (H3N2). The class given is cell-based.
A short description of the next data set: in vitro. The note with it: dog.
The next data set concerns influenza B virus. Kind of data set: microbe, parasite or virus in culture. The class given is cell-based. As to conditions: MDCK, read-out: Anti-influenza EC50 B.
The next data set concerns influenza A (H1N1). In words: microbe, parasite or virus in culture. In kind it is cell-based. The note with it: H1N1, MDCK, read-out: Anti-influenza EC50 A (H1N1).
The test system of the next data set is influenza virus A. In words: Anti-influenza virus A activity as summarised in the text. In kind it is cell-based. As to conditions: conclusions.

SMILES strings stand for the structures. A value given as a limit tells only on which side of the number the result lay.

Take `NC(=O)c1ncn([C@@H]2O[C@H](CO)[C@@H](O)[C@H]2O)n1` [Ribavirin]: the “Cytotoxicity MCC” value in the data set on MDCK cell cultures is greater than 100 µM. In addition, the results for the EC50 with influenza A (H3N2), in the data set on influenza B virus and with influenza A (H1N1) were 8.7 ± 3.8 µM, 5.6 ± 2.8 µM and 9.2 ± 0.8 µM, respectively. This compound also came in with a CC50 in “in vitro” greater than 100 µM.
The matching figures for `NC12CC3CC(CC(C3)C1)C2` [Amantadine]: greater than 100 µM, greater than 200 µM, greater than 200 µM, 36.8 ± 2.6 µM and greater than 100 µM.
The matching figures for `CC(N)C12CC3CC(CC(C3)C1)C2` (stereo not drawn) [Rimantadine]: greater than 100 µM, greater than 500 µM, greater than 500 µM, 13.2 ± 0.2 µM and greater than 100 µM.
Turning to `CCOC(=O)C1=C[C@@H](OC(CC)CC)[C@H](NC(C)=O)[C@@H](N)C1` [Oseltamivir], the “Cytotoxicity MCC” value in the data set with MDCK cell cultures was greater than 100 µM. In addition, the EC50 in the data set on influenza A (H3N2) was determined as […]; in the data set with influenza B virus, 26 ± 27.7 µM; with influenza A (H1N1) it was […]. In the data set “in vitro”, this compound gave a CC50 greater than 100 µM.
With `Nc1nc(P(=O)(O)O)nc(N)c1Cl` [7a, 4,6-Diamino-5-chloropyrimidin-2-ylphosphonic acid], the “Toxicity (in words)” value in the data set on MDCK cell cultures (Table 2) is “no toxicity”. Also, the “Cytotoxicity MCC” value in the data set with MDCK cell cultures is greater than 100 µM. Further, the concentration giving a half-maximal response (EC50) in the data set on influenza A (H3N2) was 28 ± 10 µM; with influenza B virus, 72 ± 68 µM; in the data set on influenza A (H1N1), 50 ± 14 µM. In addition, the CC50 in “in vitro” was greater than 100 µM. Further, the “Anti-influenza virus A activity (in words)” value with influenza virus A is reported as “middle micromolar range”.
